Measured values published in patent US20020025306A1, “Methods of increasing the glucose responsiveness of pancreatic ss-cells” (priority 2000, published 2002).

Assays:
[1] = test system: CDM5 cells (β-tcTet cells); experiment: Cell membrane potential measured with the bis-oxonol assay; format: cell-based
Procedure: In order to test the bioefficacy of GLP-1, which was believed to be secreted by β-1081 cells, the supernatant of the 1081 cells were kept for 4 hours in 25 mM KRBH. CDM5 cells (a type of β-cTCtet cell) were then stimulated with this supernatant. Next, the effect of this stimulation in cell membrane potential was measured using the bis-oxonol assay.
Those skilled in the art will recognize that GLP-1 has the effect of depolarizing the cell membrane upon application. This depolarization is the result of the stimulatory effect of GLP-1 on cAMP, which, as discussed above, leads to increased insulin secretion. The increased insulin secretion is the result of both the enhanced closing of ATP sensitive potassium (K^+ ATP) channels in the membrane of the β-cell as well as the protein kinase A activation of distal exocytotic events.
The cells were allowed to equilibrate in 8 mM glucose and 400 μM Diazoxide for 600 seconds. At 200, 400, 600, 800, and 1000 seconds, 1, 2, 4, 6, and 8 nM GLP-1-gly8, respectively, were added to the medium.
In this experiment, the cells were equilibrated at 8 mM glucose and 400 μM of diazoxide for 600 seconds. At t=100 seconds, 100 nM of Exendine-(9-39) was added. […] At t=600 seconds, 20 μl of water was added as a dilution control.
Again, the cells were allowed to equilibrate at 8 mM glucose and 400 μM Diazoxide for 600 seconds. At 200 seconds, 24 μl of the supernatant of the GLP-1 secreting 1081 cells were added to the cells. […] At 1500 seconds, 24 μl of the supernatant was added.
Exendine (9-39) is an inhibitor of GLP-1 activity. […] In this experiment, the equilibration period lasted from time […]. At t=200 seconds, […] of Exendine (9-39) was added to the cells.

[2] = test system: diabetic mice implanted with encapsulated CDM3D cells; experiment: In vivo evaluation of GLP-1-gly8 injected intraperitoneally in diabetic mice implanted with encapsulated CDM3D cells
Source text: The effect observed in the control group can probably be attributed to the few remaining islets (β-cells) in the pancreas of the mice that remain functional following streptozocin treatment.

[3] = comparison of GLP-1-gly8 and wild type GLP-1; cited from earlier work

Compound | membrane potential ([1]; 8 mM glucose and 400 μM Diazoxide, 2×10^6 cells, FIG. 6) | membrane potential ([1]; 400 μm Diazoxide at t=2800 s, FIG. 2) | glycemia after injection, test group ([2]; 0.1 nmol IP at t=0, streptozocin-diabetic mice implanted IP with encapsulated CDM3D cells, first two hours, FIG. 1) | glycemia after injection, control group ([2]; 0.1 nmol IP at t=0, streptozocin-diabetic non-implanted mice, FIG. 1) | loss of the effect on glycemia in the test group ([2]; 0.1 nmol IP, implanted diabetic mice) [min] | half-life [3] | membrane potential ([1]; 8 nM GLP-1-gly8, cells in 8 mM glucose and 400 μM Diazoxide, FIG. 3) | membrane potential ([1]; 1, 2, 4, 6 nM GLP-1-gly8, cells in 8 mM glucose and 400 μM Diazoxide, FIG. 3) | membrane potential ([1]; GLP-1-gly8 after exposure of the cells to Exendine-(9-39), FIG. 4)
CC1=NS(=O)(=O)c2cc(Cl)ccc2N1 [Diazoxide] | maximum hyperpolarization | maximum depolarization | – | – | – | – | – | – | –
GLP-1-gly8: commercial GLP-1-gly8, given rather than wild-type GLP-1; half-life longer than wild type GLP-1 (HDEFERHGEGTFTSDVSSYLEGQAAKEFIAWLVKGRG; Glucagon-like peptide 1; UniProt P01275 92-128, looked up, variant A8G) | – | – | large decrease in glycemia | smaller (and shorter decrease) in glycemia | 120 | longer than the half-life of wild type GLP-1 | saturation of the effect | depolarization of the cell membrane | no response was observed
